Among the test systems are 786-0 renal; ACHN renal; DU-145 prostate; MOLT-4 leukemia; OVCAR-4 ovarian; SF-268 CNS; SK-MEL-2 melanoma; SK-MEL-5 melanoma; SNB-75 CNS; UACC-62 melanoma.
Holding throughout (test): NCI anticancer screen, dose series, 48 h

Each structure is given as a SMILES string.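 Dose response: 5 concentrations. Exposure: 48 h. Format: 96-well plates. Endpoint: linear interpolation; highest concentration if not reached. The concentration for 50% growth inhibition is given as GI50. TGI is the concentration that stops growth completely.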

For the compound `COc1cc(C2=N/C(=C/c3cccs3)C(=O)O2)cc(OC)c1OC`, the TGI with 786-0 renal, in the test with ACHN renal, in the test with DU-145 prostate, in the test with MOLT-4 leukemia, in the test with OVCAR-4 ovarian and in the test with SF-268 CNS was > 100 µM each time. The TGI in the test with SK-MEL-2 melanoma, with SK-MEL-5 melanoma, in the test on SNB-75 CNS and in the test on UACC-62 melanoma was > 100 µM in each case.
Turning to `O=C(N/N=C/c1ccc(O)cc1O)c1cccc(Nc2ccnc(C(F)(F)F)c2)c1`, the GI50 with 786-0 renal was 1.14 µM; with ACHN renal, 1.25 µM; with DU-145 prostate, 1.93 µM; in the test on MOLT-4 leukemia, 0.491 µM; in the test on OVCAR-4 ovarian, 0.573 µM; with SF-268 CNS, 0.811 µM. For the same compound, the GI50 in the test on SK-MEL-2 melanoma is 7.39 µM; in the test with SK-MEL-5 melanoma, 0.626 µM; with SNB-75 CNS, 11.3 µM; with UACC-62 melanoma, 0.33 µM. The TGI in the test on 786-0 renal came out at 10.6 µM; with ACHN renal, 29.6 µM; in the test with DU-145 prostate it was 20.9 µM; with MOLT-4 leukemia, 4.56 µM; with OVCAR-4 ovarian, 51.5 µM; in the test with SF-268 CNS it was 30.4 µM. For the same compound, the TGI with SK-MEL-2 melanoma was 27.1 µM; in the test on SK-MEL-5 melanoma it was 11.1 µM; in the test with SNB-75 CNS, 52.5 µM; in the test with UACC-62 melanoma, 7.37 µM.
For the compound `[N-]=[N+]=NCCCn1c2c(c3ccc([N+](=O)[O-])cc3c1=O)C(=O)c1cc(F)ccc1-2`, the GI50 was 0.334 µM with 786-0 renal; 0.269 µM in the test with ACHN renal; 0.547 µM in the test on DU-145 prostate; 0.245 µM in the test on MOLT-4 leukemia; 16.2 µM in the test with OVCAR-4 ovarian; 9.24 µM in the test on SK-MEL-2 melanoma. Further, the GI50 in the test on SK-MEL-5 melanoma is 0.803 µM; with SNB-75 CNS, 2.13 µM; with UACC-62 melanoma, 0.523 µM. For the same compound, the TGI in the test with 786-0 renal is 2.01 µM; with ACHN renal, 1.55 µM; in the test on DU-145 prostate it was > 63.5 µM; in the test on MOLT-4 leukemia, 2.7 µM; in the test with OVCAR-4 ovarian, > 95.7 µM; with SF-268 CNS, 4.32 µM. Also, the TGI with SK-MEL-2 melanoma was > 75.1 µM; in the test on SK-MEL-5 melanoma it was 3.16 µM; in the test on SNB-75 CNS it was 29 µM; with UACC-62 melanoma, 3.55 µM.
As for `CN(C)CCNC(=O)Cn1cnc2cccc([N+](=O)[O-])c2c1=O`, the TGI in the test on 786-0 renal, in the test on ACHN renal, in the test on DU-145 prostate, in the test with MOLT-4 leukemia, in the test on OVCAR-4 ovarian and in the test on SF-268 CNS was > 100 µM each time. Further, the TGI in the test on SK-MEL-2 melanoma, with SK-MEL-5 melanoma and in the test with UACC-62 melanoma was > 100 µM in each case.
Take `O=C(O)c1c(=O)cccc2ssc12`: the GI50 was 1.88 µM in the test with 786-0 renal; 1.72 µM with ACHN renal; 1.92 µM with DU-145 prostate; 2.13 µM in the test on MOLT-4 leukemia; 2.21 µM with OVCAR-4 ovarian; 1.73 µM in the test on SF-268 CNS. The values for the GI50 with SK-MEL-2 melanoma, in the test on SK-MEL-5 melanoma and in the test with UACC-62 melanoma were 2.03 µM, 2.41 µM and 2.09 µM, respectively. Also, the TGI in the test with 786-0 renal amounted to 3.44 µM; with ACHN renal it was 3.21 µM; in the test with DU-145 prostate, 3.73 µM; with MOLT-4 leukemia, 5.11 µM; in the test on OVCAR-4 ovarian, 4.87 µM; in the test on SF-268 CNS, 3.46 µM. Besides, the TGI stood at 3.83 µM in the test on SK-MEL-2 melanoma, 5.85 µM in the test on SK-MEL-5 melanoma and 4.59 µM in the test on UACC-62 melanoma.
For `CC(=O)O[C@H](C[C@H](C(C)C)N(C)C(=O)[C@@H](NC(=O)[C@H]1CCCN1C)C(C)C)c1nc(C(=O)N[C@@H](Cc2ccccc2)C[C@H](C)C(=O)O)c(C)s1`, the GI50 is 0.00441 µM with 786-0 renal; 0.00224 µM in the test with DU-145 prostate; < 0.00167 µM in the test on MOLT-4 leukemia; 0.0773 µM in the test with OVCAR-4 ovarian; < 0.00167 µM in the test with SF-268 CNS; < 0.00167 µM in the test on SK-MEL-2 melanoma. Moreover, the GI50 in the test with SK-MEL-5 melanoma, with SNB-75 CNS and in the test on UACC-62 melanoma was < 0.00167 µM in each case. Moreover, the TGI with 786-0 renal, in the test with DU-145 prostate, in the test on MOLT-4 leukemia, with OVCAR-4 ovarian, in the test on SF-268 CNS and in the test on SK-MEL-2 melanoma was > 16.7 µM in each case. In addition, the TGI in the test on SK-MEL-5 melanoma is 0.0243 µM; with SNB-75 CNS, > 16.7 µM; in the test on UACC-62 melanoma, > 16.7 µM.
For the compound `CCCN(CCC)c1ccc(/C=N/NC(=O)c2cccnc2)c(OC)c1`, the GI50 was 32.7 µM in the test on 786-0 renal; 28.8 µM in the test on ACHN renal; 27.8 µM in the test with DU-145 prostate; 22.8 µM in the test on MOLT-4 leukemia; 23.5 µM in the test with OVCAR-4 ovarian; 26 µM with SF-268 CNS. Besides, the results for the GI50 with SK-MEL-5 melanoma, in the test with SNB-75 CNS and with UACC-62 melanoma were 14.3 µM, 23.7 µM and 16.2 µM, respectively. Further, the TGI is > 100 µM in the test on 786-0 renal; > 100 µM in the test with ACHN renal; 94.8 µM in the test with DU-145 prostate; 51.7 µM in the test with MOLT-4 leukemia; 82.8 µM in the test with OVCAR-4 ovarian; 88.7 µM in the test with SF-268 CNS. The TGI in the test with SK-MEL-5 melanoma worked out at 28.1 µM; with SNB-75 CNS, 80.4 µM; in the test with UACC-62 melanoma it was 45.6 µM.
With `CC1(C)NCCC[C@]2(C)[C@H]3CC[C@@H]4[C@H]5[C@H](C(=O)/C=C/c6ccccn6)CC[C@]5(CO)CC[C@@]4(C)[C@]3(C)CC[C@@H]12`, the GI50 in the test on 786-0 renal was 2.43 µM; in the test on ACHN renal, 3.58 µM; in the test with DU-145 prostate, 3.56 µM; with MOLT-4 leukemia it was 2.35 µM; with OVCAR-4 ovarian, 3.51 µM; in the test on SF-268 CNS, 11.2 µM. Moreover, the GI50 is 2.49 µM in the test with SK-MEL-2 melanoma, 2 µM with SK-MEL-5 melanoma and 4 µM with UACC-62 melanoma. Also, the TGI with 786-0 renal was found to be 6.26 µM; with ACHN renal, 13.6 µM; in the test with DU-145 prostate, 12.4 µM; in the test on MOLT-4 leukemia, 7.18 µM; in the test with OVCAR-4 ovarian, 13 µM; with SF-268 CNS it was 31.2 µM. Also, the TGI with SK-MEL-2 melanoma turned out to be 6.91 µM; in the test on SK-MEL-5 melanoma, 4.07 µM; in the test with UACC-62 melanoma, 17.2 µM.

(Values after PubChem BioAssay (NCI).)
